The text below walks through data of patent US20240174690A1, “ANNULATED 2-AMINO-3-CYANO THIOPHENES AND DERIVATIVES FOR THE TREATMENT OF CANCER” (BOEHRINGER INGELHEIM INTERNATIONAL GMBH, priority 2021, published 2024).

Broadly, the IC50 is the concentration at which inhibition is half-maximal. For orientation: solubility means the dissolved amount per volume that the medium holds.

For one data set, the system named is AsPC-1 cells. The data set is described as follows: AsPC-1 CTG proliferation assay (120 h) (pancreatic cancer, G12D). Format: cell-based. The note with it: Homo sapiens, ASPC1. The procedure, abridged:
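CellTiter-Glo luminescence, normalised to DMSO wells, measured viability after 120 h compound exposure. Cells were AsPC-1 pancreatic cancer (G12D) plated at 2000 per well in RPMI/10% FCS the day before dosing. IC50 derived by four-parameter regression.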

Data set [1] deals with KRAS G12D-dependent Ba/F3 cells. In words: Ba/F3 proliferation assay, KRAS G12D. The settings on record: Mus musculus, BaF3, 72 h, AlamarBlue. Type of data set: cell-based. The procedure, abridged: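 IL-3-independent Ba/F3 lines carrying retrovirally introduced KRAS G12C, G12D or G12V; puromycin withdrawn ~10 days before assay. Duplicate treatments, AlamarBlue fluorescence readout, curve-fit analysis.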
For orientation: The colour change of resazurin is a common sign of viable cells or microbes.

The next data set has as its system NCI-H2122 cells. In words: NCI-H2122 CTG proliferation assay (120 h) (NSCLC, G12C). Type of data set: cell-based. The settings on record: Homo sapiens. An outline of the steps:
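Proliferation was read by CellTiter-Glo luminescence after 120 h of compound exposure, starting one day after seeding 200 NCI-H2122 (G12C) cells per well in RPMI/10% FCS. RLU relative to DMSO wells gave percent viability, and four-parameter nonlinear regression gave IC50.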

A short description of data set [2]: Solubility measurement (DMSO solution method), McIlvaine buffer pH 4.5 or 6.8. Type of data set: physicochemical. The settings on record: aqueous buffer, kinetic from dmso stock, DMSO stock diluted to 250 μM, 24 h shaking at ambient temperature. An outline of the steps:
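Filtrate concentration by LC-UV, calibrated to a known-concentration reference dissolved completely in acetonitrile/water (1:1). Samples came from 250 µM final dilutions of DMSO stock in pH 4.5 or 6.8 McIlvaine buffer, shaken 24 h at ambient temperature, then filtered.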

The next data set has as its system LOVO cells. In words: LOVO CTG proliferation assay (120 h) (CRC, G13D). Type of data set: cell-based. The note with it: Homo sapiens, CTG 120 h. The procedure, abridged: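 IC50 comes from a four-parameter fit of CellTiter-Glo viability, expressed as RLU relative to DMSO wells. Compound exposure lasted 120 h in LOVO cells seeded the day before at 1000 cells/well in DMEM with 10% fetal calf serum.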

[3] abbreviates: McIlvaine buffer pH 4.5, read-out: solubility pH 4.5.
The mark [4] stands for this setting: McIlvaine buffer pH 6.8, read-out: solubility pH 6.8.

Each structure is given as a SMILES string. ≈ marks a conversion by molar mass, not a printed value. Where two headings read alike, the source gives them in different places. Bounds are passed on as bounds.

In the case of `C[C@H](Oc1cc(N2CCNCC2)nc(-c2noc3c2CCC[C@@]32CCCc3sc(N)c(C#N)c32)n1)[C@@H]1CCCN1C` [II-45], the half-maximal inhibitory concentration (IC50) was found to be 2310 nM in the data set with AsPC-1 cells, 58 nM in data set [1], 10600 nM in the data set with NCI-H2122 cells and 6600 nM in the data set with LOVO cells. Moreover, the solubility at 24 h in data set [2] (setting [3]) was over 135 µg/mL; in data set [2] (setting [4]), over 118 µg/mL.

Regarding `C[C@H](Oc1cc(-c2ccn(C[C@@H]3CCCO3)n2)nc(-c2noc3c2CCC[C@@]32CCCc3sc(N)c(C#N)c32)n1)[C@@H]1CCCN1C` [II-43], the IC50 with AsPC-1 cells was 2050 nM; in data set [1], 34 nM; with NCI-H2122 cells, 102 nM; in the data set on LOVO cells, 120 nM. Besides, the solubility at 24 h in data set [2] (setting [3]) is 121 µg/mL (≈ 189 µM); in data set [2] (setting [4]), 9 µg/mL (≈ 14 µM).

As for `Cc1ccc(-c2cc(O[C@@H](C)[C@@H]3CCCN3C)nc(-c3onc4c3CCC[C@@]43CCCc4sc(N)c(C#N)c43)n2)cn1` [I-28], the half-inhibitory concentration (IC50) in the data set with AsPC-1 cells came to 3420 nM; in data set [1], 250 nM; in the data set on NCI-H2122 cells, 2600 nM; in the data set with LOVO cells, 390 nM. The solubility at 24 h in data set [2] (setting [3]) stood at 93 µg/mL (≈ 160 µM); in data set [2] (setting [4]), 8 µg/mL (≈ 13.8 µM).

On to `Cc1nc(-c2cc(O[C@@H](C)[C@@H]3CCCN3C)nc(-c3onc4c3CCC[C@@]43CCCc4sc(N)c(C#N)c43)n2)cs1` [I-24], for which the half-inhibitory concentration (IC50) was determined as 3450 nM with AsPC-1 cells, 24 nM in data set [1], 930 nM in the data set with NCI-H2122 cells and 101 nM in the data set with LOVO cells. Moreover, the solubility at 24 h in data set [2] (setting [3]) is 68 µg/mL (≈ 116 µM); in data set [2] (setting [4]), under 1 µg/mL.

Consider `C[C@H](Oc1cc(-c2ccn([C@H]3CCCOC3)n2)nc(-c2noc3c2CCC[C@@]32CCCc3sc(N)c(C#N)c32)n1)[C@@H]1CCCN1C` [II-42], for which the concentration for half-maximal inhibition (IC50) in the data set with AsPC-1 cells was determined as 1890 nM; in data set [1], 26 nM; in the data set on NCI-H2122 cells it was 357 nM; in the data set with LOVO cells, 149 nM. Moreover, the solubility at 24 h in data set [2] (setting [3]) is 119 µg/mL (≈ 186 µM); in data set [2] (setting [4]), 9 µg/mL (≈ 14 µM).

As for `C[C@H](Oc1cc(N2CCC(N(C)C)CC2)nc(-c2noc3c2CCC[C@@]32CCCc3sc(N)c(C#N)c32)n1)[C@@H]1CCCN1C` [II-48], the half-inhibitory concentration (IC50) in the data set with AsPC-1 cells stood at 1490 nM; in data set [1], 70 nM; with NCI-H2122 cells it was 3100 nM; in the data set with LOVO cells, 736 nM. For the same molecule, the solubility at 24 h in data set [2] (setting [3]) is over 164 µg/mL; in data set [2] (setting [4]) it was over 149 µg/mL.

Consider `C[C@H](Oc1cc(-n2ccsc2=O)nc(-c2noc3c2CCC[C@@]32CCCc3sc(N)c(C#N)c32)n1)[C@@H]1CCCN1C` [II-135], for which the IC50 was 1390 nM in the data set on AsPC-1 cells, 1040 nM in data set [1], 112 nM in the data set on NCI-H2122 cells and 51 nM in the data set on LOVO cells. Besides, the solubility at 24 h in data set [2] (setting [3]) is 19 µg/mL (≈ 32.2 µM); in data set [2] (setting [4]), under 1 µg/mL.

Take `C[C@H](Oc1cc(-n2ccc(C(=O)O)n2)nc(-c2noc3c2CCC[C@@]32CCCc3sc(N)c(C#N)c32)n1)[C@@H]1CCCN1C` [II-24]: the IC50 with AsPC-1 cells is over 25000 nM; in data set [1], over 25000 nM; in the data set on NCI-H2122 cells, 5330 nM; with LOVO cells, 7420 nM. For the same molecule, the solubility at 24 h in data set [2] (setting [3]) and in data set [2] (setting [4]) was under 1 µg/mL throughout.

As to `C[C@H](Oc1cc([C@@H]2CCN(C)C2)nc(-c2noc3c2CCC[C@@]32CCCc3sc(N)c(C#N)c32)n1)[C@@H]1CCCN1C` [II-37], the IC50 in the data set on AsPC-1 cells was 1450 nM; in data set [1], 26 nM; with NCI-H2122 cells, 5500 nM; in the data set with LOVO cells it was 692 nM. The solubility at 24 h in data set [2] (setting [3]) and in data set [2] (setting [4]) was over 152 µg/mL throughout.

As for `C[C@H](Oc1cc(-n2ccc(C(=O)NC3(C)COC3)n2)nc(-c2noc3c2CCC[C@@]32CCCc3sc(N)c(C#N)c32)n1)[C@@H]1CCCN1C` [II-26], the half-inhibitory concentration (IC50) in the data set with AsPC-1 cells stood at 1380 nM; in data set [1], 37 nM; in the data set on NCI-H2122 cells it was 143 nM; with LOVO cells, 109 nM. The solubility at 24 h in data set [2] (setting [3]) was over 194 µg/mL; in data set [2] (setting [4]) it was 62 µg/mL (≈ 92.6 µM).

With `C[C@H](Oc1cc(Cl)nc(-c2onc3c2CCC[C@@]32CCCc3sc(N)c(C#N)c32)n1)[C@@H]1CCCN1C` [I-1], the IC50 in the data set on AsPC-1 cells is 5900 nM; in data set [1] it was 178 nM; in the data set with NCI-H2122 cells it was 4120 nM; in the data set with LOVO cells, 1270 nM. The solubility at 24 h in data set [2] (setting [3]) is over 125 µg/mL; in data set [2] (setting [4]), 101 µg/mL (≈ 192 µM).

Take `C[C@H](Oc1cc(N2CC[C@H](N3CCCC3)C2)nc(-c2noc3c2CCC[C@@]32CCCc3sc(N)c(C#N)c32)n1)[C@@H]1CCCN1C` [II-14]: the IC50 came out at 245 nM in the data set with AsPC-1 cells, 10 nM in data set [1], 1390 nM in the data set on NCI-H2122 cells and 674 nM in the data set on LOVO cells. For the same molecule, the figures for the solubility at 24 h in data set [2] (setting [3]) and in data set [2] (setting [4]) were over 151 µg/mL and 123 µg/mL (≈ 196 µM), respectively.
